Measurements published in US8968771B2, “Articles and methods for applying antimicrobial protection” (Coeus Technology, Inc., priority 2011, dated 2015).

Assay: Polymerization / stability of the molecule in solution with water
Type: physicochemical
Conditions: industrially-available preparation placed in solution with water
Description: Solutions of industrially-available preparations (e.g. 3-(trihydroxysilyl) propyldimethyloctadecyl ammonium chloride) were placed in solution with water. It was discovered that at higher concentrations (e.g. at or above about 3 to 4 percent weight/volume) the molecules polymerize to an unsatisfactory degree, making a stable solution either impossible or heavier and unsuitable for saturating a wipe-type substrate or spraying onto a surface or substrate. […] These solutions remain stable in impregnated or saturated substrates (e.g. wipes in a liquid-tight containers) or in a bottle or other container for the solution. […] When the substrate is used to wipe, the solution with the solute remains on the wiped surface in a layer. As the solvent is dried, by evaporation or otherwise, the solute remains in a dry physical layer that remains to physically combat microbes.

For `CCCCCCCCCCCCCCCCCC[N+](C)(C)CCC[Si](O)(O)O.[Cl-]` [3-(trihydroxysilyl) propyldimethyloctadecyl ammonium chloride], the “Concentration in water at which the molecules polymerize to an unsatisfactory degree” value was 3 to 4 percent weight/volume.
